The data set is described as follows: Dissolution of aceclofenac in pure artificial gastric juice (paddle method). The data set is classed as physicochemical. How it is done:
The pharmaceutical preparation containing acelcofenac was completely dissolved in 500 ml of an ethanol solution containing phosphate buffer (pH 6.8) at a volume ratio of 50%, where a preparation further containing substances of low solubility was shaken for 10 min. The resultant solution was centrifuged at 15,000 rpm for 2 min, and then filtered with a 0.45 μm membrane filter. After properly diluting 1 ml of the filtered solution, sample was used in quantification of aceclofenac, using HPLC. In a analysis of aceclofenac, a column was C18 ODS column (4.6×150 mm, 5 μm), an absorbance was at a wave length of 282 nm, a mobile phase was a mixture of MeOH:0.02 M KH2PO4 (65:35), a flow rate was 1 ml/min. 20 μl of sample was injected. Quantification of aceclofenac was accomplished with width ratio of aceclofenac and internal standard (Ethyl paraben).
Dissolution rate of acelcofenac contained in the pharmaceutical preparation was analyzed according to the dissolution test method disclosed in a guidebook “Korea Pharmacopeia (7th revision)”. A NaCl—HCl buffer solution (pH 1.4±0.1) was used as artificial gastric juice, supplemented with Tween 80 in a volume ratio of 0.3% according to intended use. 0.02 M phosphate-buffered solution (pH 6.8±0.1) was used as an artificial intestinal juice. Dissolution was performed according to the paddle method at a stirring rate of 50 rpm and a dissolution temperature of 37±0.5° C., using 500 ml of dissolution solution. […] The collected sample was centrifuged at 15,000 rpm for 2 min and filtered using a 0.45 μm membrane filter. Quantification of aceclofenac was accomplished by using HPLC. In analyzing the dissolution rate of aceclofenac, column was C18 ODS column (4.6×150 mm, 5 μm), absorbance was a wave length of 282 nm, a mobile phase was a mixture of MeOH:0.02 M KH2PO4 (65:35), and a flow rate was 1 ml/min. 20 μl of sample was injected. Quantification of aceclofenac was accomplished with width ratio of aceclofenac and internal standard (Ethyl paraben) Dissolution rate (%) of aceclofenac contained in the solid powder preparations, prepared in example, was measured according to Experimental 5. Content of aceclofenac obtained in Experimental Example 4 was used as 100% and dissolution rate of aceclofenac contained in the solid powder preparations prepared in example was given as a percentage. Dissolution concentration (μg/ml) and dissolution rate (%) of aceclofenac contained in solid powder preparation in artificial gastric juice were measured, the results are given in Tables 1 to 3, below, […]

Structures are written as SMILES.

As for `O=C(O)COC(=O)Cc1ccccc1Nc1c(Cl)cccc1Cl` [Aceclofenac], the Dissolution concentration (15 min) stood at 0.075 µg/mL; the Dissolution concentration (30 min) is 0.063 µg/mL; the Dissolution concentration (45 min) came to 0.088 µg/mL; the Dissolution concentration (60 min) came to 0.090 µg/mL; the Dissolution concentration (90 min) was 0.236 µg/mL. In addition, the Dissolution rate result is, setting by setting: (15 min) “(0.04) %”; (30 min) “(0.03) %”; (45 min) “(0.05) %”; (60 min) “(0.05) %”; (90 min) “(0.12) %”.

The values above are taken from patent US20040180961A1, “Compositions and preparation methods for bioavailable oral aceclofenac dosage forms” (priority 2001, published 2004).
